# Source: article PMC7076013 (Scientific Reports, 2020)
# What was measured:
# [1] = system: COX-2-negative (HCT-116) human colon cancer cell line; conditions: cited from earlier work
# [2] = system: A375, human melanoma; assay: MTT cell viability, A375; type: cell-based; conditions: 48 h, MTT or CV
# Procedure: Both melanoma and colon cancer are tumor types tightly connected with inflammation, while the expression of COX-2 in the selected cell lines was highly variable. Since a lot of discrepancies were found in the literature concerning the expression of this enzyme[5],[48]–[53], both COX-1 and COX-2 expression was analyzed by Western blot. […] The cells were treated with a wide range of doses of 4a–c, 5, and 6 for 48 h and cell viability was determined by MTT (3-(4,5-dimethylthiazol-2-yl)-2,5-diphenyltetrazolium bromide) and CV (crystal violet) assays. The obtained IC50 values were similar for both assays (Table 1).
# Reagents were obtained from Sigma (St. Louis, MO) unless indicated otherwise. Annexin V - FITC (AnnV) was acquired from Biotium (Hayward, CA) and Apostat from R&D (R&D S ystems, Minneapolis, MN USA). […] After being detached b y tr ypsinization, cells were seeded in defined number as follows: 2.5 × 10^3 cells/well in 96-well plates for viability assessment and 2 × 10^4 cells/well in 24-well plates for flow cytometry. […]
# Committee at IBISS (02- 09/1 6). Cells were counted and seeded in 96-well plates and incubat ed overnight. Before treatment, non- adherent cells were removed. Compounds 4a- c, 5 and 6 were dissolved in DMSO and stored at −20 °C for a m onth. Working solutions were freshl y prepared in 10% FCS-RPMI-1640. Controls were treated with culture medium containing the equivalent […]
# 3.2. Cell viability tests.
# The number of viable cel ls in culture was estimated by the MTT (3-(4,5- dimethylthiazol- 2-yl ) - 2,5- diphenyltetrazolium bromide) and CV (crystal violet) tests. Cells were incubated in the presence of compounds 4a- c, 5 and 6 for 48 h, then the viability was measured as described.4 […]
# The results were ex pressed as a p er centage of a v alue obtained for the untr eated control cells that was arbitrarily set to be 100%. A non- linear regression analysis of obtained results was done b y using Gr aphPad Prism software to calculat e IC50 values. […]
# [3] = system: COX-2-overexpressing (HCA-7) human colon cancer cell line; conditions: cited from earlier work
compound,measurement,setting,value
CS(=O)(=O)c1ccc(C2=C(c3ccccc3)C(=O)OC2)cc1 [Rofecoxib],activity against HCT-116,[1],inactive
same,viability of A375 cells,[2],did not result in significantly decreased viability
same,activity against HCA-7,[3],inactive
